Measurements as given in PubChem BioAssay AID248 (DTP/NCI, 2004).
Values joined by “and” are separate entries in the source; they are usually repeats but may differ in a detail not shown here. Equal values may be shown once. Toxic doses and inconclusive results are not listed. Cut-off read from the data, not from the text of the source: active = T/C of 150% or more; inactive = T/C below 125%.

Tested on: L1210 leukemia ip in BDF1 mice, survival T/C
Assay: NCI In Vivo Anticancer Drug Screen. Data for tumor model L1210 Leukemia (intraperitoneal) in B6D2F1 (BDF1) mice
Conditions: endpoint: mean survival time, higher = longer survival
Method in brief: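 Survival endpoint. Drug-treated group vs vehicle group, expressed as T divided by C. Tumor passaged by transplantation.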

[1] = dose: 100.0 mg/kg/injection, schedule: Q01DX009 (ip), vehicle: saline with Tween-80
[2] = dose: 100.0 mg/kg/injection, schedule: Q04DX003 (ip), vehicle: saline with Tween-80
[3] = dose: 200.0 mg/kg/injection, schedule: Q01DX009 (ip), vehicle: saline with Tween-80
[4] = dose: 200.0 mg/kg/injection, schedule: Q04DX003 (ip), vehicle: saline with Tween-80
[5] = dose: 400.0 mg/kg/injection, schedule: Q01DX009 (ip), vehicle: saline with Tween-80
[6] = dose: 400.0 mg/kg/injection, schedule: Q04DX003 (ip), vehicle: saline with Tween-80
[7] = dose: 100.0 mg/kg/injection, schedule: Q04DX002 (ip), vehicle: Klucel (hydroxypropylcellulose) (HPC)
[8] = dose: 100.0 mg/kg/injection, schedule: Q01DX001 (ip), vehicle: saline with Tween-80
[9] = dose: 200.0 mg/kg/injection, schedule: Q01DX001 (ip), vehicle: saline with Tween-80

Measured: T/C

Cc1cccc(NC(=S)NC(=O)c2cccc([N+](=O)[O-])c2)c1C
inactive: [1] 104 % of control and 118 % of control | dose: 100.0 mg/kg/injection, schedule: Q04DX002 (ip), vehicle: saline with Tween-80 88 % of control | [2] 99 % of control | [3] 103 % of control and 104 % of control | dose: 200.0 mg/kg/injection, schedule: Q04DX002 (ip), vehicle: saline with Tween-80 102 % of control | [4] 101 % of control | [5] 104 % of control | dose: 400.0 mg/kg/injection, schedule: Q04DX002 (ip), vehicle: saline with Tween-80 98 % of control | [6] 100 % of control

COC(=O)C(C)(C)O
inactive: dose: 100.0 mg/kg/injection, schedule: Q01DX009 (ip), vehicle: saline 102 % of control | dose: 100.0 mg/kg/injection, schedule: Q04DX003 (ip), vehicle: saline 104 % of control | dose: 200.0 mg/kg/injection, schedule: Q01DX009 (ip), vehicle: saline 102 % of control | dose: 200.0 mg/kg/injection, schedule: Q04DX003 (ip), vehicle: saline 100 % of control | dose: 400.0 mg/kg/injection, schedule: Q01DX009 (ip), vehicle: saline 97 % of control | dose: 400.0 mg/kg/injection, schedule: Q04DX003 (ip), vehicle: saline 104 % of control

O=C(O)C1Cc2ccccc2CN1 (stereo unspecified)
inactive: dose: 25.0 mg/kg/injection, schedule: Q01DX009 (ip), vehicle: saline with Tween-80 95 % of control | dose: 50.0 mg/kg/injection, schedule: Q01DX009 (ip), vehicle: saline with Tween-80 98 % of control | [1] 96 % of control and 106 % of control

CCOC(=O)c1cnc(SC)nc1Oc1ccccc1
inactive: [1] 101 % of control | [3] 106 % of control | [5] 98 % of control

O=[N+]([O-])c1cc(COc2ccc(Cl)c(Cl)c2)ccc1Cl
inactive: dose: 100.0 mg/kg/injection, schedule: Q01DX009 (ip), vehicle: Klucel (hydroxypropylcellulose) (HPC) 95 % of control | [7] 97 % of control and 98 % of control and 102 % of control | dose: 200.0 mg/kg/injection, schedule: Q01DX009 (ip), vehicle: Klucel (hydroxypropylcellulose) (HPC) 93 % of control | dose: 200.0 mg/kg/injection, schedule: Q04DX002 (ip), vehicle: Klucel (hydroxypropylcellulose) (HPC) 96 % of control and 97 % of control and 110 % of control | dose: 200.0 mg/kg/injection, schedule: Q04DX002 (ip), vehicle: saline 102 % of control | dose: 400.0 mg/kg/injection, schedule: Q01DX009 (ip), vehicle: Klucel (hydroxypropylcellulose) (HPC) 96 % of control | dose: 400.0 mg/kg/injection, schedule: Q04DX002 (ip), vehicle: Klucel (hydroxypropylcellulose) (HPC) 93 % of control and 99 % of control and 103 % of control | dose: 400.0 mg/kg/injection, schedule: Q04DX002 (ip), vehicle: saline 97 % of control

[Br][Sn]([Br])([CH]1CCCCC1)[CH]1CCCCC1
inactive: dose: 9.38 mg/kg/injection, schedule: Q01DX001 (ip), vehicle: other 91 % of control | dose: 18.75 mg/kg/injection, schedule: Q01DX001 (ip), vehicle: other 93 % of control

O=[N+]([O-])c1cc[n+]([O-])c2sccc12
inactive: [2] 100 % of control | [4] 109 % of control | [6] 108 % of control

CCN(CC)c1ccc(NC(=S)Nc2ccc(N(CC)CC)cc2)cc1
inactive: dose: 75.0 mg/kg/injection, schedule: Q01DX009 (ip), vehicle: Klucel (hydroxypropylcellulose) (HPC) 100 % of control | dose: 75.0 mg/kg/injection, schedule: Q04DX003 (ip), vehicle: saline 106 % of control | dose: 150.0 mg/kg/injection, schedule: Q01DX009 (ip), vehicle: Klucel (hydroxypropylcellulose) (HPC) 101 % of control | dose: 150.0 mg/kg/injection, schedule: Q04DX003 (ip), vehicle: saline 103 % of control | dose: 300.0 mg/kg/injection, schedule: Q01DX009 (ip), vehicle: Klucel (hydroxypropylcellulose) (HPC) 94 % of control | dose: 300.0 mg/kg/injection, schedule: Q04DX003 (ip), vehicle: saline 93 % of control

O=c1cc(Cc2ccc(F)cc2)[nH]c(=O)[nH]1
inactive: dose: 25.0 mg/kg/injection, schedule: Q01DX001 (ip), vehicle: Klucel (hydroxypropylcellulose) (HPC) 97 % of control | dose: 50.0 mg/kg/injection, schedule: Q01DX001 (ip), vehicle: Klucel (hydroxypropylcellulose) (HPC) 101 % of control | dose: 100.0 mg/kg/injection, schedule: Q01DX001 (ip), vehicle: Klucel (hydroxypropylcellulose) (HPC) 96 % of control

O=C1C=CC(=O)N1c1ccc(Br)cc1 (tested in a mixture with another compound)
inactive: dose: 100.0 mg/kg/injection, schedule: Q04DX003 (ip), vehicle: acetone 96 % of control | dose: 200.0 mg/kg/injection, schedule: Q04DX003 (ip), vehicle: acetone 89 % of control | dose: 400.0 mg/kg/injection, schedule: Q04DX003 (ip), vehicle: acetone 91 % of control

O=C1c2cccc(S(=O)(=O)O)c2C(=O)c2cccc([N+](=O)[O-])c21
inactive: dose: 100.0 mg/kg/injection, schedule: Q04DX003 (ip), vehicle: Klucel (hydroxypropylcellulose) (HPC) 98 % of control | dose: 200.0 mg/kg/injection, schedule: Q04DX003 (ip), vehicle: Klucel (hydroxypropylcellulose) (HPC) 91 % of control | dose: 400.0 mg/kg/injection, schedule: Q04DX003 (ip), vehicle: Klucel (hydroxypropylcellulose) (HPC) 94 % of control

O=[N+]([O-])c1ccc(Cl)c(OCCCOc2ccc(S(=O)(=O)F)cc2)c1
inactive: [8] 96 % of control | [9] 87 % of control | dose: 400.0 mg/kg/injection, schedule: Q01DX001 (ip), vehicle: saline with Tween-80 90 % of control

C=CCNC(=S)Nc1ncn[nH]1
inactive: dose: 75.0 mg/kg/injection, schedule: Q01DX001 (ip), vehicle: carboxymethylcellulose (CMC) 103 % of control | dose: 150.0 mg/kg/injection, schedule: Q01DX001 (ip), vehicle: carboxymethylcellulose (CMC) 104 % of control | dose: 300.0 mg/kg/injection, schedule: Q01DX001 (ip), vehicle: carboxymethylcellulose (CMC) 90 % of control

CCCCCCCCCCCCCC[N+](C)(C)CCCCCCCCCCCCCC
inactive: dose: 12.5 mg/kg/injection, schedule: Q01DX009 (ip), vehicle: saline 108 % of control | dose: 12.5 mg/kg/injection, schedule: Q04DX003 (ip), vehicle: saline 104 % of control | dose: 25.0 mg/kg/injection, schedule: Q01DX009 (ip), vehicle: saline 106 % of control | dose: 25.0 mg/kg/injection, schedule: Q04DX003 (ip), vehicle: saline 105 % of control | dose: 50.0 mg/kg/injection, schedule: Q01DX009 (ip), vehicle: saline 90 % of control | dose: 50.0 mg/kg/injection, schedule: Q04DX003 (ip), vehicle: saline 102 % of control

CN(C)CCCn1c2nc(=O)[nH]c(=O)c-2nc2cc(Cl)c(Cl)cc21
inactive: dose: 4.0 mg/kg/injection, schedule: Q01DX Z (ip), vehicle: methylcellulose (MC) 117 % of control

NC1CC2CCC1C2 (stereo unspecified)
inactive: dose: 50.0 mg/kg/injection, schedule: Q01DX001 (ip), vehicle: saline with Tween-80 98 % of control | dose: 50.0 mg/kg/injection, schedule: Q04DX002 (ip), vehicle: saline 93 % of control | [8] 98 % of control | dose: 100.0 mg/kg/injection, schedule: Q04DX002 (ip), vehicle: saline 100 % of control | [9] 103 % of control

O=C(OCc1ccccc1CN1CCCCC1)c1ccc(Cl)cc1
inactive: dose: 25.0 mg/kg/injection, schedule: Q04DX002 (ip), vehicle: Klucel (hydroxypropylcellulose) (HPC) 102 % of control | dose: 50.0 mg/kg/injection, schedule: Q04DX002 (ip), vehicle: Klucel (hydroxypropylcellulose) (HPC) 105 % of control | [7] 107 % of control

CCOC(=O)NC1=NCC(C)(C)S1
inactive: dose: 75.0 mg/kg/injection, schedule: Q01DX001 (ip), vehicle: saline 97 % of control
